Biological target: T1, human TPH1 (Homo sapiens, UniProt P17752)
T1 sequence (P17752 1-444): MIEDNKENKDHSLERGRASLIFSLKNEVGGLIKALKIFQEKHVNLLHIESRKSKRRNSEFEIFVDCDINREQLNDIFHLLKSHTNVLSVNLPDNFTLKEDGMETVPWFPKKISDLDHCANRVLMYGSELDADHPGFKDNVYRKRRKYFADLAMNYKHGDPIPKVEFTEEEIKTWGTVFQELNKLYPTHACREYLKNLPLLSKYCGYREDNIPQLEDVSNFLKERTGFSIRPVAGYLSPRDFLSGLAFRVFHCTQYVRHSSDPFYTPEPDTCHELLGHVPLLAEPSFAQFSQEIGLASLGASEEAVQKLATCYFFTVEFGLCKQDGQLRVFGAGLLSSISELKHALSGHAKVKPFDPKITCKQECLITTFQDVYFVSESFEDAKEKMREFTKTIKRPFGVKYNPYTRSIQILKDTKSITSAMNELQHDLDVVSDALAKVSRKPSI
Assay: biochemical
Source text: Biochemical In Vitro Assay Using Fluorescence Readout
To generate the enzyme, full length human TPH1 is cloned into the plasmid pET20b(+) (Novagen) and expressed in E. coli. The bacterial cells are ruptured by sonication on ice and the lysate is cleared by centrifugation. The resulting protein in the pellet is re-extracted and TPH1 is purified from the obtained lysate by affinity chromatography using a pterin cosubstrate analog immobilized to the resin of the column. The protein is further purified by size exclusion chromatography to remove protein aggregates. The activity of TPH1 is determined by using a fluorescence assay. The enzyme activity assay is carried out at 15° C. with atmosphere oxygen for the duration of 60 minutes in a volume of 64 μl. The reaction is carried out in a 0.1 M Tris-HCl buffer, adjusted to pH 7.6, containing 1 mM DTT, 0.2 mg/mL catalase, 100 μM (±)-6-methyl-5,6,7,8-tetrahydropterine dihydrochloride, 40 μM L-tryptophan, and 40-80 nM of TPH1. The reaction is started by bringing together L-tryptophan with all the other reaction substituents and stopped by quenching with perchloric acid (HClO4). The amount of 5-hydroxy-L-tryptophan produced during the enzymatic reaction is determined by fluorescence readout. Fluorescence, as determined at 540 nm when excited at 300 nm wavelength, increases proportionally to the 5-hydroxy-L-tryptophan formed. Compounds are prepared as 10 mM stock solution in DMSO, then diluted in 384-well plates using DMSO followed by a transfer of the dilutions into the assay plate. Fluorescence is measured for each well and the fluorescence at 540 nm wavelength is compared to the fluorescence of the vehicle in place of compound. […] The calculated IC50 values may fluctuate depending on the daily biochemical assay performance. Fluctuations of this kind are known to those skilled in the art.

IC50 | Compound
42 nM | Cc1nc(N(C)C)ccc1OCC(=O)N1CCc2nc3ccccn3c2C1c1ccc(C2CC2)cc1F (centres unmarked) [Example 1.5.3, 1-(1-(4-cyclopropyl-2-fluorophenyl)-3,4-dihydroimidazo[1,2-a:5,4-c′]dipyridin-2(1H)-yl)-2-((6-(dimethylamino)-2-methylpyridin-3-yl)oxy)ethan-1-one]
34 nM | O=C(COc1cccnc1Cl)N1CCc2nc3ccccn3c2C1c1ccc(C2CC2)cc1F (centres unmarked) [Example 1.5.4, 2-((2-chloropyridin-3-yl)oxy)-1-(1-(4-cyclopropyl-2-fluorophenyl)-3,4-dihydroimidazo[1,2-a:5,4-c′]dipyridin-2(1H)-yl)ethan-1-one]
29 nM | CCc1nc(C)ccc1OCC(=O)N1CCc2nc3ccccn3c2C1c1ccc(C2CC2)cc1F (centres unmarked) [Example 1.5.5, 1-(1-(4-cyclopropyl-2-fluorophenyl)-3,4-dihydroimidazo[1,2-a:5,4-c′]dipyridin-2(1H)-yl)-2-((2-ethyl-6-methylpyridin-3-yl)oxy)ethan-1-one]
13 nM | O=C(COc1cccnc1C(F)(F)F)N1CCc2nc3ccccn3c2C1c1ccc(C2CC2)cc1F (centres unmarked) [Example 1.5.6, 1-(1-(4-cyclopropyl-2-fluorophenyl)-3,4-dihydroimidazo[1,2-a:5,4-c′]dipyridin-2(1H)-yl)-2-((2-(trifluoromethyl)pyridin-3-yl)oxy)ethan-1-one]
387 nM | O=C(COc1ccc(N2CCOCC2)nc1Cl)N1CCc2nc3ccccn3c2C1c1cnc(N2CCOCC2)s1 (centres unmarked) [Example 1.6.1, 2-((2-chloro-6-morpholinopyridin-3-yl)oxy)-1-(1-(2-morpholinothiazol-5-yl)-3,4-dihydroimidazo[1,2-a:5,4-c′]dipyridin-2(1H)-yl)ethan-1-one]
101 nM | CN(C)Cc1csc(C2c3c(nc4ccccn34)CCN2C(=O)COc2ccc(N3CCOCC3)nc2Cl)c1 (centres unmarked) [Example 1.7.1, 2-((2-chloro-6-morpholinopyridin-3-yl)oxy)-1-(1-(4-((dimethylamino)methyl)thiophen-2-yl)-3,4-dihydroimidazo[1,2-a:5,4-c′]dipyridin-2(1H)-yl)ethan-1-one]
16 nM | O=C(COc1ccc(N2CCOCC2)nc1Cl)N1CCc2nc3ccccn3c2C1c1nc(-c2ccccc2)no1 (centres unmarked) [Example 1.8.1, 2-((2-chloro-6-morpholinopyridin-3-yl)oxy)-1-(1-(3-phenyl-1,2,4-oxadiazol-5-yl)-3,4-dihydroimidazo[1,2-a:5,4-c′]dipyridin-2(1H)-yl)ethan-1-one]
230 nM | COc1ccc(C2c3c(nc4ccccn34)CCN2C(=O)COc2ccc3ccccc3c2)cc1O (centres unmarked) [Example 1.9.1, 1-(1-(3-hydroxy-4-methoxyphenyl)-3,4-dihydroimidazo[1,2-a:5,4-c′]dipyridin-2(1H)-yl)-2-(naphthalen-2-yloxy)ethan-1-one]
451 nM | Cc1ccc(C2c3c(nc4ccccn34)CCN2C(=O)COc2ccc(Cl)cc2Cl)cc1C (centres unmarked) [Example 1.10.1, 2-(2,4-dichlorophenoxy)-1-(1-(3,4-dimethylphenyl)-3,4-dihydroimidazo[1,2-a:5,4-c′]dipyridin-2(1H)-yl)ethan-1-one]
7 nM | O=C(COc1ccc(N2CCOCC2)nc1Cl)N1CCc2nc3ccccn3c2C1c1ccc(Cl)nc1F (centres unmarked) [Example 1.11.1, 1-(1-(6-chloro-2-fluoropyridin-3-yl)-3,4-dihydroimidazo[1,2-a:5,4-c′]dipyridin-2(1H)-yl)-2-((2-chloro-6-morpholinopyridin-3-yl)oxy)ethan-1-one]

Further lines, the compound ahead of its results:

Compound | IC50
CS(=O)(=O)Nc1ccc(OCC(=O)N2CCc3nc4ccccn4c3C2c2ccc(Cl)cc2F)c(Cl)n1 (centres unmarked) [Example 1.4.7, N-(6-chloro-5-(2-(1-(4-chloro-2-fluorophenyl)-3,4-dihydroimidazo[1,2-a:5,4-c′]dipyridin-2(1H)-yl)-2-oxoethoxy)pyridin-2-yl)methanesulfonamide] | 10 nM
COCCN(C)c1ccc(OCC(=O)N2CCc3nc4ccccn4c3C2c2ccc(Cl)cc2F)c(Cl)n1 (centres unmarked) [Example 1.4.8, 1-(1-(4-chloro-2-fluorophenyl)-3,4-dihydroimidazo[1,2-a:5,4-c′]dipyridin-2(1H)-yl)-2-((2-chloro-6-((2-methoxyethyl)(methyl)amino)pyridin-3-yl)oxy)ethan-1-one] | 39 nM
CS(=O)(=O)Nc1ccc(OCC(=O)N2CCc3nc4ccccn4c3C2c2ccc(Cl)cc2F)c(C2CC2)n1 (centres unmarked) [Example 1.4.9, N-(5-(2-(1-(4-chloro-2-fluorophenyl)-3,4-dihydroimidazo[1,2-a:5,4-c′]dipyridin-2(1H)-yl)-2-oxoethoxy)-6-cyclopropylpyridin-2-yl)methanesulfonamide] | 364 nM
CN(CCO)c1ccc(OCC(=O)N2CCc3nc4ccccn4c3C2c2ccc(Cl)cc2F)c(Cl)n1 (centres unmarked) [Example 1.4.10, 1-(1-(4-chloro-2-fluorophenyl)-3,4-dihydroimidazo[1,2-a:5,4-c′]dipyridin-2(1H)-yl)-2-((2-chloro-6-((2-hydroxyethyl)(methyl)amino)pyridin-3-yl)oxy)ethan-1-one] | 87 nM
CN(CC(F)(F)F)c1ccc(OCC(=O)N2CCc3nc4ccccn4c3C2c2ccc(Cl)cc2F)c(Cl)n1 (centres unmarked) [Example 1.4.11, 1-(1-(4-chloro-2-fluorophenyl)-3,4-dihydroimidazo[1,2-a:5,4-c′]dipyridin-2(1H)-yl)-2-((2-chloro-6-(methyl(2,2,2-trifluoroethyl)amino)pyridin-3-yl)oxy)ethan-1-one] | 14 nM
CN(C)c1ccc(OCC(=O)N2CCc3nc4ccccn4c3C2c2ccc(Cl)cc2F)c(Cl)n1 (centres unmarked) [Example 1.4.12, 1-(1-(4-chloro-2-fluorophenyl)-3,4-dihydroimidazo[1,2-a:5,4-c′]dipyridin-2(1H)-yl)-2-((2-chloro-6-(dimethylamino)pyridin-3-yl)oxy)ethan-1-one] | 58 nM
O=C(NC1CC1)c1ccc(OCC(=O)N2CCc3nc4ccccn4c3C2c2ccc(Cl)cc2F)c(C2CC2)n1 (centres unmarked) [Example 1.4.13, 5-(2-(1-(4-chloro-2-fluorophenyl)-3,4-dihydroimidazo[1,2-a:5,4-c′]dipyridin-2(1H)-yl)-2-oxoethoxy)-N,6-dicyclopropylpicolinamide] | 36 nM
CS(=O)(=O)c1ccc(OCC(=O)N2CCc3nc4ccccn4c3C2c2ccc(Cl)cc2F)c(Cl)n1 (centres unmarked) [Example 1.4.14, 1-(1-(4-chloro-2-fluorophenyl)-3,4-dihydroimidazo[1,2-a:5,4-c′]dipyridin-2(1H)-yl)-2-((2-chloro-6-(methylsulfonyl)pyridin-3-yl)oxy)ethan-1-one] | 287 nM
CN(C)C(=O)c1ccc(OC2(C(=O)N3CCc4nc5ccccn5c4C3c3ccc(Cl)cc3F)CC2)c(Cl)n1 (centres unmarked) [Example 1.4.15, 6-chloro-5-(1-(1-(4-chloro-2-fluorophenyl)-1,2,3,4-tetrahydroimidazo[1,2-a:5,4-c′]dipyridine-2-carbonyl)cyclopropoxy)-N,N-dimethylpicolinamide] | 323 nM
CS(=O)(=O)Nc1ccc(OC2(C(=O)N3CCc4nc5ccccn5c4C3c3ccc(Cl)cc3F)CC2)c(Cl)n1 (centres unmarked) [Example 1.4.16, N-(6-chloro-5-(1-(1-(4-chloro-2-fluorophenyl)-1,2,3,4-tetrahydroimidazo[1,2-a:5,4-c′]dipyridine-2-carbonyl)cyclopropoxy)pyridin-2-yl)methanesulfonamide] | 488 nM
CN(C)C(=O)c1ccc(OC(C)(C)C(=O)N2CCc3nc4ccccn4c3C2c2ccc(Cl)cc2F)c(Cl)n1 (centres unmarked) [Example 1.4.17, 6-chloro-5-((1-(1-(4-chloro-2-fluorophenyl)-3,4-dihydroimidazo[1,2-a:5,4-c′]dipyridin-2(1H)-yl)-2-methyl-1-oxopropan-2-yl)oxy)-N,N-dimethylpicolinamide] | 949 nM
O=C(COc1ccc(N2CCOCC2)cc1Cl)N1CCc2nc3ccccn3c2C1c1ccc(C2CC2)cc1F (centres unmarked) [Example 1.5.1, 2-(2-chloro-4-morpholinophenoxy)-1-(1-(4-cyclopropyl-2-fluorophenyl)-3,4-dihydroimidazo[1,2-a:5,4-c′]dipyridin-2(1H)-yl)ethan-1-one] | 9 nM
O=C(COc1ccc(N2CCOCC2)nc1Cl)N1CCc2nc3ccccn3c2C1c1ccc(C2CC2)cc1F (centres unmarked) [Example 1.5.2, 2-((2-chloro-6-morpholinopyridin-3-yl)oxy)-1-(1-(4-cyclopropyl-2-fluorophenyl)-3,4-dihydroimidazo[1,2-a:5,4-c′]dipyridin-2(1H)-yl)ethan-1-one] | 6 nM
